Data taken from patent US20260234140A1, “PYRIDOPYRIMIDINE DERIVATIVE AND USE THEREOF” (SUNSHINE LAKE PHARMA CO., LTD., priority 2023, published 2026).

Assays:
PD1/PD-L1 pathway = experiment: PD1/PD-L1 Blockade Bioassay, inhibition of the PD1/PD-L1 pathway at the cellular level (luciferase reporter, PD-1 Jukat T cells co-cultured with PD-L1 aAPC/CHO-K1 cells); type: cell-based; details: T-cell; for EC50: PD-1 Jukat T cells + PD-L1 aAPC/CHO-K1 cells, 6 h co-culture, ONE-Glo luciferase readout; for Emax: maximum % Activity relative to atezolizumab (set to 100%)
Protocol: Experiment 1: Detecting the Inhibitory Activity of Compounds on the PD1/PD-L1 Pathway at the Cellular Level Using the PD1/PD-L1 Blockade Bioassay Method
PD-1 Jukat T cells were revived and cultured with 1640 medium containing 100 μg/mL Hygromycin B, […] Puromycin, 10% FBS and 1% dual antibody; PD-L1 aAPC/CHO-K1 cells were revived and cultured with F12K medium containing 100 μg/mL Hygromycin B, 200 μg/mL G418, 10% FBS and 1% dual antibody.
The revived cells need to be passaged 2-3 times. When the cells enter the exponential growth phase with good growth status, the PD-L1 aAPC/CHO-K1 was digested with trypsin, and the cells were resuspended in F12K containing 5% FBS and adjusted to a density of 5×10^5 cells/mL. 20 μl/well were plated in a 384-well plate (10,000 cells/well) and incubated in an incubator overnight for 16-20 h.
a Preparation of compound stock solution: Dissolve the compound to be tested in DMSO to prepare a 20 mM stock solution.
b Compound gradient dilution: dilute the compound in 1640 medium containing 5% FBS without antibiotics or phenol red, and make 3-fold gradient dilutions to prepare 10 concentration gradients (2×).
c Adding drugs: Take out the cell culture plate, discard the supernatant, add 20 μl/well of the prepared compound, and incubate in the incubator for 1.5 h.
PD-1 Jukat T cells were collected, washed once with PBS, and resuspended in 1640 medium containing 5% FBS without antibiotics or phenol red. The density was adjusted to 1×10^6 cells/mL. 20 μl PD-1 Jukat T cells (20,000 cells/well) were added to each well and incubated in the incubator for 6 h.
ONE-Glo™ Luciferase Assay reagent was thawed to room temperature in advance and then added to a 384-well plate at 40 µl/well. Incubate in the dark for 15 minutes and read the […] signal on a plate reader.
[formula] • Among them, % Activity: % Activity • RLU: Resulting Luminescence unit • RLUvehicle: Average RLU value of negative control wells on each plate • RLUpositive: Average RLU value of positive control wells on each plate • Vehicle control: DMSO (0.1%) corresponding to the test value was used as negative control (its % Activity was 0%); • Positive control: The highest detection value at the atezolizumab administration concentration was used as the positive control (its % Activity was 100%). • (2) EC50 value calculation method: The EC50 value was obtained by the nonlinear fitting formula of Graph Pad Prism 8.0 software. The calculation formula is as follows:
Y=Bottom+(Top−Bottom)/(1+10^((Log EC50−X)×HillSlope)) • X: log of activator concentration (logarithm of compound concentration); Y: % Activity • (3) Emax definition: The maximum % Activity value corresponding to the maximum activation value of the compound relative to atezolizumab (the activation value is set to 100%).

[1] = Pharmacokinetics experiment in SD rats; type: in vivo; details: male SD rats; for AUC(0-t) / Cmax / half-life / clearance / Vd: rat, plasma; for Vd: read-out: Vss
Protocol: Experiment 2: Pharmacokinetics Experiment
1) Preparation of the compound solutions of Example 1 and Example 17: The test compound was prepared into a solution using 10% dimethyl sulfoxide, 10% Kolliphor HS15 and 80% physiological saline; Preparation of the compound solution of Example 11: The compound to be tested is prepared into a solution with 5% dimethyl sulfoxide, 5% Kolliphor HS15 and 90% saline for oral administration or intravenous injection.
2) Male SD rats weighing 250-345 g were randomly divided into two groups. One group was intravenously injected with the test compound at a dose of 1.0 mg/kg, and the other group was orally administered with the test compound at a dose of 5.0 mg/kg. Blood was collected at 0.083, 0.25, 0.5, 1, 2, 5, 7 and 24 hours after administration.
3) A standard curve of an appropriate range was established according to the sample concentration, and the concentration of the test compound in the plasma sample was determined in the MRM mode using an AB SCIEX Q TRAP 4000 LC-MS/MS. The pharmacokinetic parameters were calculated using the non-compartmental model method using WinNonLin 6.3 software.

| EC50 (PD1/PD-L1 pathway) | F ([1]; ig (oral), 5 mg/kg) | AUC(0-t) ([1]; ig (oral), 5 mg/kg) | Cmax ([1]; ig (oral), 5 mg/kg) | half-life ([1]; ig (oral), 5 mg/kg) | AUC(0-t) ([1]; iv, 1 mg/kg) | Cmax ([1]; iv, 1 mg/kg) | clearance ([1]; iv, 1 mg/kg) | half-life ([1]; iv, 1 mg/kg) | Vd ([1]; iv, 1 mg/kg) | Compound | Emax (PD1/PD-L1 pathway) |
| --- | --- | --- | --- | --- | --- | --- | --- | --- | --- | --- | --- |
| 44 nM | 32% | 12300 ng·h/mL | 935 ng/mL | 4.9 h | 7710 ng·h/mL | 877 ng/mL | 2.1 mL/min/kg | 5.4 h | 0.82 L/kg | COc1nc(-c2cccc(-c3cccc(Nc4nc(C(F)F)nc5cc(CN6CC[C@@H](O)C6)cnc45)c3C)c2Cl)ccc1CN(C)[C@H]1CC[C@H](C(=O)O)CC1 [Example 1, (1r,4r)-4-(((6-(2-chloro-3′-((2-(difluoromethyl)-7-(((R)-3-hydroxypyrrolidin-1-yl)methyl)pyrido[3,2-d]pyrimidin-4-yl)amino)-2′-methyl-[1,1′-biphenyl]-3-yl)-2-methoxypyridin-3-yl)methyl)(methyl)amino)cyclohexane-1-carboxylic acid] | 98.2% |
| 20.4 nM | 52.9% | 16700 ng·h/mL | 1630 ng/mL | 4.3 h | 6370 ng·h/mL | 1100 ng/mL | 2.6 mL/min/kg | 3.9 h | 0.75 L/kg | COc1nc(-c2cccc(-c3cccc(Nc4nc(C(F)F)nc5cc(CN6CC[C@@H](O)C6)cnc45)c3C)c2Cl)cnc1CN(C)[C@H]1CC[C@H](C(=O)O)CC1 [Example 11, (1r,4r)-4-(((5-(2-chloro-3′-((2-(difluoromethyl)-7-(((R)-3-hydroxypyrrolidin-1-yl)methyl)pyrido[3,2-d]pyrimidin-4-yl)amino)-2′-methyl-[1,1′-biphenyl]-3-yl)-3-methoxypyrazin-2-yl)methyl)(methyl)amino)cyclohexane-1-carboxylic acid] | 98.5% |
| 109 nM | 55% | 27000 ng·h/mL | 1980 ng/mL | – | 9760 ng·h/mL | 675 ng/mL | 1.6 mL/min/kg | 7.5 h | 0.95 L/kg | COc1nc(-c2cccc(-c3cccc(Nc4nc(C(F)F)nc5cc(CN6CC[C@@H](O)C6)cnc45)c3C)c2Cl)ccc1CN(C)C[C@H]1CC[C@H](C(=O)O)CC1 [Example 17, (1r,4r)-4-((((6-(2-chloro-3′-((2-(difluoromethyl)-7-(((R)-3-hydroxypyrrolidin-1-yl)methyl)pyrido[3,2-d]pyrimidin-4-yl)amino)-2′-methyl-[1,1′-biphenyl]-3-yl)-2-methoxypyridin-3-yl)methyl)(methyl)amino)methyl)cyclohexane-1-carboxylic acid] | 94.1% |
| – | 57.8% | 25900 ng·h/mL | 1850 ng/mL | 6.1 h | 8890 ng·h/mL | 621 ng/mL | 1.7 mL/min/kg | 6.6 h | 0.91 L/kg | [2H]C([2H])([2H])N(Cc1ncc(-c2cccc(-c3cccc(Nc4nc(C(F)F)nc5cc(CN6CC[C@@H](O)C6)cnc45)c3C)c2Cl)cc1OC)C[C@H]1CC[C@H](C(=O)O)CC1 [Example 38, (1r,4r)-4-((((5-(2-chloro-3′-((2-(difluoromethyl)-7-(((R)-3-hydroxypyrrolidin-1-yl)methyl)pyrido[3,2-d]pyrimidin-4-yl)amino)-2′-methyl-[1,1′-biphenyl]-3-yl)-3-methoxypyridin-2-yl)methyl)(methyl-d3)amino)methyl)cyclohexane-1-carboxylic acid] | – |
| 57.7 nM | 23% | 15100 ng·h/mL | 1260 ng/mL | 4.1 h | 12900 ng·h/mL | 1870 ng/mL | 1.3 mL/min/kg | 4.5 h | 0.43 L/kg | COc1nc(-c2cccc(-c3cccc(Nc4nc(C(F)F)nc5cc(CN6CC[C@@H](O)C6)cnc45)c3C)c2Cl)ccc1CN1CCC(C(=O)O)CC1 [Example 40, (R)-1-((6-(2-chloro-3′-((2-(difluoromethyl)-7-((3-hydroxypyrrolidin-1-yl)methyl)pyrido[3,2-d]pyrimidin-4-yl)amino)-2′-methyl-[1,1′-biphenyl]-3-yl)-2-methoxypyridin-3-yl)methyl)piperidine-4-carboxylic acid] | 121% |
